The structures appear in SMILES notation.

For this assay, the system named is USP25 phosphorylation at SQ/TQ motif in HEK293T cells. Description: USP25 phosphorylation (p-SQ/TQ) after IR, IP and immunoblot. The settings on record: IR (10 Gy), Ku55933 (25 µM) for 2 h pretreatment or phosphatase treatment of immunoprecipitated USP25. The assay is classed as cell-based. The procedure: Figure 4 Regulation of the DDR signaling by USP25. a) HEK293T cells were left untreated or treated with IR (10 Gy) or 5‐Fu (20 uM). USP25 was immunoprecipitated and immunoblotted with phospho‐SQ/TQ (p‐SQ/TQ). b) HEK293T cells were pretreated with Ku55933 (25 µM) for 2 h followed by treatment with IR(10 Gy). After 1 h, USP25 was immunoprecipitated, left untreated, or treated with phosphatase and immunoblotted with p‐SQ/TQ. c) HEK293T cells transfected with USP25^WT and indicated constructs were left treated with IR(10 Gy). USP25 was immunoprecipitated and immunoblotted with p‐SQ/TQ. d) USP25 knockdowm U2OS cells rescued with USP25WT or USP25T523A were treated with IR (2 Gy), and co‐localization USP25 with γH2AX was detected by immunofluorescence. n>80 in each group. e) HEK293T cells were left untreated or treated with 5‐Fu (20 uM). […] The interaction USP25 and MDC1 deletions was detected. g) HEK293T cells transfected with USP25^WT or USP25^T523A were treated with IR, and cell lysates were incubated with GST or GST‐MDC1‐BRCT in vitro. The interaction USP25 and MDC1‐BRCT was detected. h) Non‐phosphorylated or phosphorylated Thr523 peptide was conjugated to beads and incubated with purified GST‐MDC1‐BRCT domain in buffer. […]
Background: A western blot detects proteins with antibodies after separation by electrophoresis.

For `O=c1cc(-c2cccc3c2Sc2ccccc2S3)oc(N2CCOCC2)c1` [Ku55933], the USP25 phosphorylation entry was “abolished”.

(Values after publication PMC11267380, “USP25 Elevates SHLD2‐Mediated DNA Double‐Strand Break Repair and Regulates Chemoresponse in Cancer” (Advanced Science, 2024).)
